Measurements: US12378224B2 (Dong-A Socio Holdings Co., Ltd., priority 2016, dated 2025)

Assays:
human MER (528-end) = human MER (528-end) (Homo sapiens (Human), UniProt Q12866); assay: HTRF Kinase Activity Biochemical Assay (KinEASE-TK); details: 10 uM ATP
Procedure, shortened: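 Recombinant human MER (528-end) phosphorylated biotin-TK peptide substrate, 1 h at room temperature. Reaction stopped with detection buffer containing 0.375 nM Eu3+-cryptate anti-TK antibody and 0.062 uM streptavidin-XL665, 1 h further. Activity taken as HTRF ratio 665/620 nm ×10,000, 340 nm excitation.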

[1] = target: BCR fusion to kinase domain of MerTK (Ba/F3-MerTK) (Homo sapiens, UniProt Q12866); assay: In Cell TAM Kinase Assay Using BaF3 Cellular System; type: cell-based, murine; details: Ba/F3 BCR-kinase fusion proliferation, 72 hours, Cell Titer Glo; kinase not given; read-out: IC50
Sequence of BCR fusion to kinase domain of MerTK (Ba/F3-MerTK) (Q12866 21-999 limits assumed, change not shown): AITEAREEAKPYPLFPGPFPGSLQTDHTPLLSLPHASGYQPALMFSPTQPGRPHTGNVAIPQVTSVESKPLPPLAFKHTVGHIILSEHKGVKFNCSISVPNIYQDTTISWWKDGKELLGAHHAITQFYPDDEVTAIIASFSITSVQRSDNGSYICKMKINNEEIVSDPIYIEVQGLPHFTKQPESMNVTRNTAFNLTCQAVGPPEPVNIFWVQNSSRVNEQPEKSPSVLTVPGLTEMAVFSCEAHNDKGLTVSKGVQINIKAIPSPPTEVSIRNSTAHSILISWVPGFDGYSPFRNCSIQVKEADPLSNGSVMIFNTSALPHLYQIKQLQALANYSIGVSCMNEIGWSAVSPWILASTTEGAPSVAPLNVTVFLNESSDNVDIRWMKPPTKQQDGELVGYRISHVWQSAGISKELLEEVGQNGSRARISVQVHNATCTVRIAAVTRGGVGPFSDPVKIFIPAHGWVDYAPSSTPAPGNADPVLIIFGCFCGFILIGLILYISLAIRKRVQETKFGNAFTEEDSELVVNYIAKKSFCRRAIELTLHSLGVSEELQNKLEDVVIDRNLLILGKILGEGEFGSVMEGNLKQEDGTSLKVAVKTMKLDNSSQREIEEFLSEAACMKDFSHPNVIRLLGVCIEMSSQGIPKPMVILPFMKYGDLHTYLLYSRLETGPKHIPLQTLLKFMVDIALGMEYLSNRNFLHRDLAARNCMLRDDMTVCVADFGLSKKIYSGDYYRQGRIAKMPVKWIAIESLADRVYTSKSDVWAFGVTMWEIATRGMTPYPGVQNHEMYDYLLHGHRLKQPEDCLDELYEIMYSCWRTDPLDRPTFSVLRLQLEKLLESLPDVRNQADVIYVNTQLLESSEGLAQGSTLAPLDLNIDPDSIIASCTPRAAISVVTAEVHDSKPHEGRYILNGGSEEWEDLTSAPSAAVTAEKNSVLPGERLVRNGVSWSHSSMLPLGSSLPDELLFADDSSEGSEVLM
Procedure, shortened: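 Ba/F3 murine pro-B cells expressing BCR–MerTK kinase-domain fusion (IL-3 independent), seeded at 1,000 cells/well onto compound and grown 72 h. Viability read by CellTiter-Glo 2.0 luminescence after 30 min at room temperature.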

Sequence of human MER (528-end) (Q12866 528-999 limits assumed): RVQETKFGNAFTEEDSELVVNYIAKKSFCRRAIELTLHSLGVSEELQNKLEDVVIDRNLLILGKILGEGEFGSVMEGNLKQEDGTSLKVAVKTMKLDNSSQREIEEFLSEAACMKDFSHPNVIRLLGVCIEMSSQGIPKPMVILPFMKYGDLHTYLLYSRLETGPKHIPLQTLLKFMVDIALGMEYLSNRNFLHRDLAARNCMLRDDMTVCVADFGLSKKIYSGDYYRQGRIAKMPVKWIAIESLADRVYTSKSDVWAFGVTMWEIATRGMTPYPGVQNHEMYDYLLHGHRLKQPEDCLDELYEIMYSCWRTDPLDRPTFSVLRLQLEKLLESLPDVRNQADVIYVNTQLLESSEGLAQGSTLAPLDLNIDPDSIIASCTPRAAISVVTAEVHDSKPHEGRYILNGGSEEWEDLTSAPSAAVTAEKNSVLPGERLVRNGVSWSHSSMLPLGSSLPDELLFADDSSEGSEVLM

Compound	IC50 (human MER (528-end))	IC50 [1]
Cn1cc(-c2cnc(N)c(C(=O)N[C@@H]3CCN(C(=O)c4ccc(-c5ccc(Oc6ccncc6)cc5)cc4)C3)c2)cn1 [Example 798, (R)-2-amino-5-(1-methyl-1H-pyrazol-4-yl)-N-(1-(4′-(pyridin-4-yloxy)-[1,1′-biphenyl]-4-carbonyl)pyrrolidin-3-yl)nicotinamide]	10 to 100 nM	> 1000 nM
Cc1ccc(-c2ccc(C(=O)N3CC[C@@H](NC(=O)c4cc(-c5cnn(C)c5)cnc4N)C3)cc2)s1 [Example 526, (R)-2-amino-5-(1-methyl-1H-pyrazol-4-yl)-N-(1-(4-(5-methylthiophen-2-yl)benzoyl)pyrrolidin-3-yl)nicotinamide]	10 to 100 nM	> 1000 nM
CN1CCC(N(Cc2ccccc2)c2ccc3cc(C(=O)N4CC[C@@H](NC(=O)c5cc(-c6cnn(C)c6)cnc5N)C4)ccc3c2)CC1 [Example 720, (R)-2-amino-N-(1-(6-(benzyl(1-methylpiperidin-4-yl)amino)-2-naphthoyl)pyrrolidin-3-yl)-5-(1-methyl-1H-pyrazol-4-yl)nicotinamide]	100 to 1000 nM	> 1000 nM
CN(c1ccc(-c2ccc(C(=O)N3CC[C@@H](NC(=O)c4cc(-c5cnn(C)c5)cnc4N)C3)cc2)cc1)c1ccc([N+](=O)[O-])cc1 [Example 803, (R)-2-amino-N-(1-(4′-(methyl(4-nitrophenyl)amino)-[1,1′-biphenyl]-4-carbonyl)pyrrolidin-3-yl)-5-(1-methyl-1H-pyrazol-4-yl)nicotinamide]	100 to 1000 nM	> 1000 nM
Nc1ncc(-c2ccc(C(=O)N3CCOCC3)c(Cl)c2)cc1C(=O)N[C@@H]1CCN(C(=O)c2ccc(-c3ccc(F)cc3Cl)cc2)C1 [Example 781, (R)-2-amino-N-(1-(2′-chloro-4′-fluoro-[1,1′-biphenyl]-4-carbonyl)pyrrolidin-3-yl)-5-(3-chloro-4-(morpholine-4-carbonyl)phenyl)nicotinamide]	10 to 100 nM	> 1000 nM
Cn1cc(-c2cnc(N)c(C(=O)N[C@@H]3CCN(C(=O)c4ccc(-c5ccc(F)cc5F)cc4)C3)c2)cn1 [Example 365, (R)-2-amino-N-(1-(2′,4′-difluoro-[1,1′-biphenyl]-4-carbonyl)pyrrolidin-3-yl)-5-(1-methyl-1H-pyrazol-4-yl)nicotinamide]	10 to 100 nM	> 1000 nM
Cc1csc(-c2ccc(C(=O)N3CC[C@@H](NC(=O)c4cc(-c5cnn(C)c5)cnc4N)C3)cc2)c1 [Example 525, (R)-2-amino-5-(1-methyl-1H-pyrazol-4-yl)-N-(1-(4-(4-methylthiophen-2-yl)benzoyl)pyrrolidin-3-yl)nicotinamide]	10 to 100 nM	100 to 500 nM
Cn1cc(-c2cnc(N)c(C(=O)NC[C@H]3CCN(C(=O)c4cccc(-c5ccccc5)c4)C3)c2)cn1 [Example 741, (R)—N-((1-([1,1′-biphenyl]-3-carbonyl)pyrrolidin-3-yl)methyl)-2-amino-5-(1-methyl-1H-pyrazol-4-yl)nicotinamide]	> 1000 nM	> 1000 nM
CN1CCN(C(=O)c2ccc(-c3cnc(N)c(C(=O)N[C@@H]4CCN(C(=O)c5ccc(-c6ccccc6Cl)cc5)C4)c3)cc2)CC1 [Example 588, (R)-2-amino-N-(1-(2′-chloro-[1,1′-biphenyl]-4-carbonyl)pyrrolidin-3-yl)-5-(4-(4-methylpiperazine-1-carbonyl)phenyl)nicotinamide]	10 to 100 nM	> 1000 nM
Cc1cc(N)ccc1N(C)c1ccc(-c2ccc(C(=O)N3CC[C@@H](NC(=O)c4cc(-c5cnn(C)c5)cnc4N)C3)cc2)cc1 [Example 836, (R)-2-amino-N-(1-(4′-((4-amino-2-methylphenyl)(methyl)amino)-[1,1′-biphenyl]-4-carbonyl)pyrrolidin-3-yl)-5-(1-methyl-1H-pyrazol-4-yl)nicotinamide]	100 to 1000 nM	> 1000 nM
Cn1cc(-c2cnc(N)c(C(=O)N[C@@H]3CCN(C(=O)c4ccc5cc(C(=O)N6CCN(CCO)CC6)ccc5c4)C3)c2)cn1 [Example 786, (R)-2-amino-N-(1-(6-(4-(2-hydroxyethyl)piperazine-1-carbonyl)-2-naphthoyl)pyrrolidin-3-yl)-5-(1-methyl-1H-pyrazol-4-yl)nicotinamide]	> 1000 nM	> 1000 nM
Cn1cc(-c2cnc(N)c(C(=O)N[C@@H]3CCN(C(=O)c4ccc(Oc5ccccc5Cl)cc4)C3)c2)cn1 [Example 718, (R)-2-amino-N-(1-(4-(2-chlorophenoxy)benzoyl)pyrrolidin-3-yl)-5-(1-methyl-1H-pyrazol-4-yl)nicotinamide]	10 to 100 nM	500 to 1000 nM
Cn1cc(-c2cnc(N)c(C(=O)N[C@@H]3CCN(C(=O)c4ccc(-c5ccccc5F)cc4)C3)c2)cn1 [Example 370, (R)-2-amino-N-(1-(2′-fluoro-[1,1′-biphenyl]-4-carbonyl)pyrrolidin-3-yl)-5-(1-methyl-1H-pyrazol-4-yl)nicotinamide]	10 to 100 nM	> 1000 nM
Cn1cc(-c2cnc(N)c(C(=O)N[C@@H]3CCN(C(=O)c4c[nH]c5ccccc45)C3)c2)cn1 [Example 710, (R)—N-(1-(1H-indole-3-carbonyl)pyrrolidin-3-yl)-2-amino-5-(1-methyl-1H-pyrazol-4-yl)nicotinamide]	> 1000 nM	> 1000 nM
Cn1cc(-c2cnc(N)c(C(=O)N[C@@H]3CCN(C(=O)c4ccc(-c5ccc(Oc6ccc(CO)cc6)cc5)cc4)C3)c2)cn1 [Example 635, (R)-2-amino-N-(1-(4′-(4-(hydroxymethyl)phenoxy)-[1,1′-biphenyl]-4-carbonyl)pyrrolidin-3-yl)-5-(1-methyl-1H-pyrazol-4-yl)nicotinamide]	10 to 100 nM	100 to 500 nM
Cn1cc(-c2cnc(N)c(C(=O)N[C@@H]3CCN(C(=O)c4ccc(Oc5ccc(N)cc5)cc4)C3)c2)cn1 [Example 832, (R)-2-amino-N-(1-(4-(4-aminophenoxy)benzoyl)pyrrolidin-3-yl)-5-(1-methyl-1H-pyrazol-4-yl)nicotinamide]	> 1000 nM	> 1000 nM
Cn1cc(-c2cnc(N)c(C(=O)N[C@@H]3CCN(C(=O)c4ccc(Oc5cccc(N)c5)cc4)C3)c2)cn1 [Example 830, (R)-2-amino-N-(1-(4-(3-aminophenoxy)benzoyl)pyrrolidin-3-yl)-5-(1-methyl-1H-pyrazol-4-yl)nicotinamide]	100 to 1000 nM	> 1000 nM
CN1CCN(Cc2ccc(-c3cnc(N)c(C(=O)N[C@@H]4CCN(C(=O)c5ccc(-c6ccccc6)cc5)C4)c3)cc2)CC1 [Example 567, (R)—N-(1-([1,1′-biphenyl]-4-carbonyl)pyrrolidin-3-yl)-2-amino-5-(4-((4-methylpiperazin-1-yl)methyl)phenyl)nicotinamide]	10 to 100 nM	> 1000 nM
CN(c1ccc(-c2ccc(C(=O)N3CC[C@@H](NC(=O)c4cc(-c5cnn(C)c5)cnc4N)C3)cc2)cc1)c1ccc(N)cc1F [Example 835, (R)-2-amino-N-(1-(4′-((4-amino-2-fluorophenyl)(methyl)amino)-[1,1′-biphenyl]-4-carbonyl)pyrrolidin-3-yl)-5-(1-methyl-1H-pyrazol-4-yl)nicotinamide]	100 to 1000 nM	> 1000 nM
Cn1cc(-c2cnc(N)c(C(=O)N[C@@H]3CCN(C(=O)c4ccc(OCc5cccc(N)c5)cc4)C3)c2)cn1 [Example 838, (R)-2-amino-N-(1-(4-((3-aminobenzyl)oxy)benzoyl)pyrrolidin-3-yl)-5-(1-methyl-1H-pyrazol-4-yl)nicotinamide]	100 to 1000 nM	> 1000 nM
Cn1cc(-c2cnc(N)c(C(=O)N[C@@H]3CCN(C(=O)c4ccc(-c5ccc6c(ccn6C)c5)cc4)C3)c2)cn1 [Example 756, (R)-2-amino-N-(1-(4-(1-methyl-1H-indol-5-yl)benzoyl)pyrrolidin-3-yl)-5-(1-methyl-1H-pyrazol-4-yl)nicotinamide]	100 to 1000 nM	> 1000 nM
Nc1ncc(-c2ccc(N3CCOCC3)nc2)cc1C(=O)N[C@@H]1CCN(C(=O)c2ccc(-c3ccc(F)cc3Cl)cc2)C1 [Example 584, (R)-6-amino-N-(1-(2′-chloro-4′-fluoro-[1,1′-biphenyl]-4-carbonyl)pyrrolidin-3-yl)-6′-morpholino-[3,3′-bipyridine]-5-carboxamide]	10 to 100 nM	> 1000 nM
CN(c1ccc(-c2ccc(C(=O)N3CC[C@@H](NC(=O)c4cc(-c5cnn(C)c5)cnc4N)C3)cc2)cc1)c1ccc([N+](=O)[O-])cc1F [Example 804, (R)-2-amino-N-(1-(4′-((2-fluoro-4-nitrophenyl)(methyl)amino)-[1,1′-biphenyl]-4-carbonyl)pyrrolidin-3-yl)-5-(1-methyl-1H-pyrazol-4-yl)nicotinamide]	100 to 1000 nM	> 1000 nM
CN1CCCC1CCOc1ccc2cc(C(=O)N3CC[C@@H](NC(=O)c4cc(-c5cnn(C)c5)cnc4N)C3)ccc2c1 (stereo partly shown) [Example 764]	100 to 1000 nM	> 1000 nM
CN(C)CCCOc1ccc2cc(C(=O)N3CC[C@@H](NC(=O)c4cc(-c5cnn(C)c5)cnc4N)C3)ccc2c1 [Example 766, (R)-2-amino-N-(1-(6-(3-(dimethylamino)propoxy)-2-naphthoyl)pyrrolidin-3-yl)-5-(1-methyl-1H-pyrazol-4-yl)nicotinamide]	100 to 1000 nM	> 1000 nM
Cn1cc(-c2cnc(N)c(C(=O)N[C@@H]3CCN(C(=O)c4ccc5cccnc5n4)C3)c2)cn1 [Example 699, (R)—N-(1-(1,8-naphthyridine-2-carbonyl)pyrrolidin-3-yl)-2-amino-5-(1-methyl-1H-pyrazol-4-yl)nicotinamide]	> 1000 nM	> 1000 nM
